Reference: publication PMC7290235, “Regulation of Exopolysaccharide Production by ProE, a Cyclic-Di-GMP Phosphodiesterase in Pseudomonas aeruginosa PAO1” (Frontiers in Microbiology, 2020)

How the values were obtained:
[1] = molecular target: T1, WspR (Pseudomonas aeruginosa, UniProt Q9HXT9); assay: HPLC of c-di-GMP formation; assay type: biochemical; details: 500 uM GTP, 5 uM enzyme, Tris-HCl pH 7.8, 250 mM NaCl, 25 mM KCl, 10 mM MgCl2, 37 C, 120 min
T1 construct: wspR in pET28b(+) (BamHI/HindIII), His tag, Ni-NTA purified; tag removal not mentioned

[2] = molecular target: T2, ProE (Pseudomonas aeruginosa, UniProt Q9HTQ9); assay: HPLC of pGpG formation, […] nm; assay type: biochemical; details: 50 uM c-di-GMP, 0.08 uM enzyme, Tris-HCl pH 8.0, 20 mM KCl, 5 mM MgCl2, 37 C, 20 min
T2 construct: gene PA5295; coding region in pET28b(+) (BamHI/HindIII), His tag, Ni-NTA purified; GGDEF 113-282, EAL 292-538; tag removal not mentioned
T2 sequence (Q9HTQ9 entry or part of it): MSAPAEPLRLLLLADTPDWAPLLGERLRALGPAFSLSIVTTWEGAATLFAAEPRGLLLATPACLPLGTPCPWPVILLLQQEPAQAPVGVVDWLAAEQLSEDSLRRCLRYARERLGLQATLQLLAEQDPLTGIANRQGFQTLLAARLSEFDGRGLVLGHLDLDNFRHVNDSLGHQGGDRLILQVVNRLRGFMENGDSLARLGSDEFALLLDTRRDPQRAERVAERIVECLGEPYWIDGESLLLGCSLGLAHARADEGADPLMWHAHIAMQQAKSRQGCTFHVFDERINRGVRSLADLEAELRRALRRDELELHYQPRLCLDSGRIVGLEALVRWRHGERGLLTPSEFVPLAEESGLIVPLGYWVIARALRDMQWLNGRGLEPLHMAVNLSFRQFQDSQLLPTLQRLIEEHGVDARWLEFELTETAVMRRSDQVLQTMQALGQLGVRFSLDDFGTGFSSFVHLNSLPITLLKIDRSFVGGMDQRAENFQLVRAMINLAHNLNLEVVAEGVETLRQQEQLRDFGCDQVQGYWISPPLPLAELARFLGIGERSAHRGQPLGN

T1 sequence (Q9HXT9 entry or part of it): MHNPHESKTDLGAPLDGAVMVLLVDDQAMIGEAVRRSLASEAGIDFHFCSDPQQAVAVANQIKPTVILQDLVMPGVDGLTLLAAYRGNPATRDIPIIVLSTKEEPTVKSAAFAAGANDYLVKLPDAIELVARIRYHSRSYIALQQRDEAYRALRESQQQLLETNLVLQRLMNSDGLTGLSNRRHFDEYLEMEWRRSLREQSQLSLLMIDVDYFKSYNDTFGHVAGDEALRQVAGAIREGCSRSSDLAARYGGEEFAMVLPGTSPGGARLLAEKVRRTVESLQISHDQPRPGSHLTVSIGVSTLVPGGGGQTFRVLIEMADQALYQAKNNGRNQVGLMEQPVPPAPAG

| Structure (SMILES) | HPLC of c-di-GMP formation [1] | HPLC of pGpG formation, 254 nm [2] |
| --- | --- | --- |
| Nc1nc2c(ncn2[C@@H]2O[C@H](COP(=O)(O)OP(=O)(O)OP(=O)(O)O)[C@@H](O)[C@H]2O)c(=O)[nH]1 [GTP] | the control protein WspR could convert most GTP into c-di-GMP | – |
| Nc1nc2c(ncn2[C@@H]2O[C@@H]3COP(=O)(O)O[C@H]4[C@@H](O)[C@H](n5cnc6c(=O)[nH]c(N)nc65)O[C@@H]4COP(=O)(O)O[C@H]3[C@H]2O)c(=O)[nH]1 [c-di-GMP] | – | HPLC analysis showed that the degradation product pGpG was produced |
